Test results published in article PMC10913730, “Antimicrobial activity of a natural compound and analogs against multi-drug-resistant Gram-positive pathogens” (Microbiology Spectrum, 2024).
In brackets after ≈: the same amount, converted by molar mass. Like-named read-outs stand apart in the source and are kept apart here.

Columns and labels:
[1] = pH and Ka of 10-g/L aqueous solutions (pH meter); format: physicochemical; conditions: 10-g/L solution in distilled, deionized water
[2] = test system: MRSA isolates; assay: MIC/MBC, CLSI broth microdilution, MRSA isolates; format: cell-based, Staphylococcus aureus
[3] = test system: Staphylococcus epidermidis isolates; assay: microbe, parasite or virus in culture; format: cell-based; conditions: 21 Staphylococcus epidermidis isolates
[4] = test system: Enterococcus faecalis; assay: MIC/MBC against Enterococcus faecalis; format: cell-based
[5] = test system: Streptococcus pyogenes; assay: MIC/MBC against Streptococcus pyogenes; format: cell-based; conditions: for MBC: Streptococcus pyogenes
[6] = test system: Pseudomonas aeruginosa; assay: MIC against Pseudomonas aeruginosa; format: cell-based
[7] = test system: MRSA isolate SAD05 biofilms; format: cell-based, Staphylococcus aureus
[8] = test system: human dermal fibroblast (HDF) cells; assay: alamarBlue cell viability assay, HDF; conditions: HDFs, 24-hour incubation, non-linear regression
[9] = test system: human bronchial epithelial (16HBE) cells; assay: alamarBlue cell viability assay, 16HBE; conditions: 24-hour incubation, non-linear regression
[10] = test system: erythrocytes (sheep blood); assay: Hemolytic activity against sheep erythrocytes; conditions: higher than MIC90
[11] = Staphylococcus aureus, MRSA, pH 5.5, MRSA 0606, pH 5.5
[12] = Staphylococcus aureus, MRSA, pH 5.5, MRSA 0608, pH 5.5
[13] = Staphylococcus aureus, MRSA, pH 5.5, MRSA 0634, pH 5.5
[14] = Staphylococcus aureus, MRSA, pH 5.5, MRSA 0641, pH 5.5
[15] = Staphylococcus aureus, MRSA, pH 5.5, MRSA 0646, pH 5.5
[16] = Staphylococcus aureus, MRSA, pH 5.5, TCH 1516, pH 5.5
[17] = Staphylococcus aureus, MRSA, pH 6.5, MRSA 0606, pH 6.5
[18] = Staphylococcus aureus, MRSA, pH 6.5, MRSA 0608, pH 6.5
[19] = Staphylococcus aureus, MRSA, pH 6.5, MRSA 0634, pH 6.5
[20] = Staphylococcus aureus, MRSA, pH 6.5, MRSA 0641, pH 6.5
[21] = Staphylococcus aureus, MRSA, pH 6.5, MRSA 0646, pH 6.5
[22] = Staphylococcus aureus, MRSA, pH 6.5, TCH 1516, pH 6.5
[23] = ATCC49532, Enterococcus faecalis (ATCC 49532)
[24] = ATCC51575, Enterococcus faecalis (ATCC 51575)
[25] = Streptococcus pyogenes (NR1571)

In the case of Oc1c(Br)cc(Br)cc1-c1cc(Br)cc(Br)c1O [C58, MC21-A], the “acid dissociation constant (Ka)” value [1] is reported as 1.26 × 10^−12, the pH of solution ([1]; room temperature) is reported as 6.80 and the MBC ([2]; MRSA 0606, pH 7.4) is reported as 6 µg/mL (≈ 12 µM). The MIC ([2]; MRSA 0606, pH 7.4) was 2 µg/mL (≈ 3.99 µM), the MBC ([2]; MRSA 0608, pH 7.4) was 4 µg/mL (≈ 7.97 µM) and the MIC ([2]; MRSA 0608, pH 7.4) was 2 µg/mL (≈ 3.99 µM). The MBC ([2]; MRSA 0634, pH 7.4) was 2 µg/mL (≈ 3.99 µM), the MIC ([2]; MRSA 0634, pH 7.4) was 2 µg/mL (≈ 3.99 µM) and the MBC ([2]; MRSA 0641, pH 7.4) was 4 µg/mL (≈ 7.97 µM). It also gave an MIC ([2]; MRSA 0641, pH 7.4) of 2 µg/mL (≈ 3.99 µM), an MBC ([2]; MRSA 0646, pH 7.4) of 4 µg/mL (≈ 7.97 µM) and an MIC ([2]; MRSA 0646, pH 7.4) of 2 µg/mL (≈ 3.99 µM). The MIC90 ([2]; Staphylococcus aureus, MRSA) was 2 µg/mL (≈ 3.99 µM), the MBC [2, 11] was 0.5 µg/mL (≈ 0.996 µM) and the MIC [2, 11] was 0.5 µg/mL (≈ 0.996 µM). It also gave an MBC [2, 12] of 0.5 µg/mL (≈ 0.996 µM), an MIC [2, 12] of 0.5 µg/mL (≈ 0.996 µM) and an MBC [2, 13] of 0.5 µg/mL (≈ 0.996 µM). It also gave an MIC [2, 13] of 0.5 µg/mL (≈ 0.996 µM), an MBC [2, 14] of 0.5 µg/mL (≈ 0.996 µM) and an MIC [2, 14] of 0.5 µg/mL (≈ 0.996 µM). It also gave an MBC [2, 15] of 1 µg/mL (≈ 1.99 µM), an MIC [2, 15] of 0.5 µg/mL (≈ 0.996 µM) and an MBC [2, 16] of 1 µg/mL (≈ 1.99 µM). It also gave an MIC [2, 16] of 1 µg/mL (≈ 1.99 µM), an MBC ([2]; Staphylococcus aureus, MRSA, pH 5.5, read-out: Average MBC, average of six MRSA isolates, pH 5.5) of 0.67 µg/mL (≈ 1.34 µM) and an MIC ([2]; Staphylococcus aureus, MRSA, pH 5.5, read-out: Average MIC, average of six MRSA isolates, pH 5.5) of 0.58 µg/mL (≈ 1.16 µM). For the same compound, the MBC [2, 17] was 2 µg/mL (≈ 3.99 µM), the MIC [2, 17] was 1 µg/mL (≈ 1.99 µM) and the MBC [2, 18] was 2 µg/mL (≈ 3.99 µM). For the same compound, the MIC [2, 18] was 2 µg/mL (≈ 3.99 µM), the MBC [2, 19] was 2 µg/mL (≈ 3.99 µM) and the MIC [2, 19] was 1 µg/mL (≈ 1.99 µM). The MBC [2, 20] was 2 µg/mL (≈ 3.99 µM), the MIC [2, 20] was 1 µg/mL (≈ 1.99 µM) and the MBC [2, 21] was 2 µg/mL (≈ 3.99 µM). The MIC [2, 21] was 1 µg/mL (≈ 1.99 µM), the MBC [2, 22] was 2 µg/mL (≈ 3.99 µM) and the MIC [2, 22] was 1 µg/mL (≈ 1.99 µM). It also gave an MBC ([2]; Staphylococcus aureus, MRSA, pH 6.5, read-out: Average MBC, average of six MRSA isolates, pH 6.5) of 2 µg/mL (≈ 3.99 µM), an MIC ([2]; Staphylococcus aureus, MRSA, pH 6.5, read-out: Average MIC, average of six MRSA isolates, pH 6.5) of 1.2 µg/mL (≈ 2.39 µM) and an MBC ([2]; Staphylococcus aureus, MRSA, pH 7.4, read-out: Average MBC, average of six MRSA isolates, pH 7.4) of 4 µg/mL (≈ 7.97 µM). It also gave an MIC ([2]; Staphylococcus aureus, MRSA, pH 7.4, read-out: Average MIC, average of six MRSA isolates, pH 7.4) of 2 µg/mL (≈ 3.99 µM), an MBC ([2]; Staphylococcus aureus, MRSA, read-out: MBC90, 39 evaluated MRSA isolates, CLSI broth microdilution) of 4 µg/mL (≈ 7.97 µM) and an MBC ([2]; TCH 1516, pH 7.4) of 4 µg/mL (≈ 7.97 µM). For the same compound, the MIC ([2]; TCH 1516, pH 7.4) was 2 µg/mL (≈ 3.99 µM), the “change of MIC and MBC with the reduction in pH” value ([2]; six MRSA isolates, pH lowered to 5.5) was “decreased as much as fourfold” and the MBC range [3] was 4 to 12 µg/mL. The MIC range [3] was 1 to 4 µg/mL, the MBC ([3]; read-out: MBC90) was 8 µg/mL (≈ 15.9 µM) and the MIC90 ([3]; read-out: MIC90) was 2 µg/mL (≈ 3.99 µM). For the same compound, the MBC [4, 23] was 12 µg/mL (≈ 23.9 µM), the MIC [4, 23] was 6 µg/mL (≈ 12 µM) and the MBC [4, 24] was 12 µg/mL (≈ 23.9 µM). For the same compound, the MIC [4, 24] was 6 µg/mL (≈ 12 µM), the MIC [5, 25] was 4 µg/mL (≈ 7.97 µM) and the MIC ([5]; Streptococcus pyogenes (NR1575), read-out: MIC) was 4 µg/mL (≈ 7.97 µM). It also gave an MBC [5, 25] of 16 µg/mL (≈ 31.9 µM), an MBC ([5]; Streptococcus pyogenes (NR1575)) of 12 µg/mL (≈ 23.9 µM) and an MIC ([6]; Pseudomonas aeruginosa (PAM57-15)) of over 32 µg/mL. For the same compound, the MIC ([6]; Pseudomonas aeruginosa (PAO1)) was over 32 µg/mL, the “concentration that completely eradicated biofilms” value ([7]; 72-hour biofilms of SAD05, MBEC assay) was 8 µg/mL and the “biofilm biomass, crystal violet assay” value ([7]; SAD05 biofilms, compared with vancomycin) was “lower biomass”. For the same compound, the LD50 [8] was 71.3 µg/mL, the LD50 [9] was 59.3 µg/mL and the “concentration where hemolytic activity begins relative to MIC90” value [10] was 32 fold.
